Assay results reported in ChEMBL document CHEMBL1126058, “Development of potent and selective CCK-A receptor agonists from Boc-CCK-4: tetrapeptides containing Lys(N epsilon)-amide residues” (J Med Chem, 1992).
Where a SMILES comes first, the peptide text is derived from it. [ ]: non-standard residue; d: D form. The star is where a group is joined. X23 = O=C(/C=C/c1ccc(OS(=O)(=O)O)cc1)*; X28 = O=C(/C=C\c1cccc(OS(=O)(=O)O)c1)*; X22 = O=C(CCc1cccc(OS(=O)(=O)O)c1)*; X24 = O=C(/C=C/c1c[nH]c2ccccc12)*; X26 = O=C(/C=C\c1ccc(Cl)c(Cl)c1)*; NMeF = CN[C@@H](Cc1ccccc1)C(=O)O; X30 = O=C(CCc1ccc(C(F)(F)F)cc1)*; X31 = COc1ccc(/C=C\C(=O)*)cc1OC; X25 = COc1ccc(/C=C\C(=O)*)cc1; X33 = O=C(/C=C/c1ccc(Cl)cc1)*; X29 = O=C(/C=C\c1cccc(O)c1)*; X32 = Cc1ccc(/C=C\C(=O)*)cc1; X27 = O=C(Cc1ccc(O)cc1)*; Boc = CC(C)(C)OC(=O)*

Tests used:
Cavia porcellus [1] = species on record: Cavia porcellus; experiment: Hydrolysis of phosphoinositide (PI) relative to maximal response elicited by CCK-8 in guinea pig pancreas.; assay type: functional
Cavia porcellus [2] = species on record: Cavia porcellus; experiment: Stimulation of amylase release in guinea pig pancreas; assay type: functional
[3] = molecular target: T1, Cholecystokinin receptor type A (Cavia porcellus, UniProt Q63931); experiment: Inhibition of specific binding of [125I]BH-CCK-8 in guinea pig pancreas.
T1 sequence (Q63931 whole entry): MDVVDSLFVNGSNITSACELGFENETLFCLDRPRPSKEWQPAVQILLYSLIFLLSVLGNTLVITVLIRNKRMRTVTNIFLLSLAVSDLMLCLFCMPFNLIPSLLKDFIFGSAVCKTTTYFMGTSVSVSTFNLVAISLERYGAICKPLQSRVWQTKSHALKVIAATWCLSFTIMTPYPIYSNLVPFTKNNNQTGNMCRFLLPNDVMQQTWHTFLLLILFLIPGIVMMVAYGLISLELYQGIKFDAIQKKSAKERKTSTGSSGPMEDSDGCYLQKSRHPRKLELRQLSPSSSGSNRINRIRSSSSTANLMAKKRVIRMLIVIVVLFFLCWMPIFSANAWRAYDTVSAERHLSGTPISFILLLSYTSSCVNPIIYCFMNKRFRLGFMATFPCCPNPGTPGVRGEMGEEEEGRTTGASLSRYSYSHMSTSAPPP

Compound	EC50 (Cavia porcellus [2]) [nM]	IC50 [3] [nM]	Max (Cavia porcellus [1]) [%]
CC(C)(C)OC(=O)N[C@@H](Cc1c[nH]c2ccccc12)C(=O)N[C@@H](CCCCNC(=O)CCc1cccc(OS(=O)(=O)O)c1)C(=O)N[C@@H](CC(=O)O)C(=O)N[C@@H](Cc1ccccc1)C(N)=O (Boc-WK(X22)DF-NH2)	69	180	50
CC(C)(C)OC(=O)N[C@@H](Cc1c[nH]c2ccccc12)C(=O)N[C@@H](CCCCNC(=O)/C=C/c1c[nH]c2ccccc12)C(=O)N[C@@H](CC(=O)O)C(=O)N[C@@H](Cc1ccccc1)C(N)=O (Boc-WK(X24)DF-NH2)	30	19	55
CC(C)(C)OC(=O)N[C@@H](Cc1c[nH]c2ccccc12)C(=O)N[C@@H](CCCCNC(=O)Cc1ccc(O)cc1)C(=O)N[C@@H](CC(=O)O)C(=O)N[C@@H](Cc1ccccc1)C(N)=O (Boc-WK(X27)DF-NH2)	30000	1100	88
CC(C)(C)OC(=O)N[C@@H](Cc1c[nH]c2ccccc12)C(=O)N[C@@H](CCCCNC(=O)/C=C\c1cccc(OS(=O)(=O)O)c1)C(=O)N[C@@H](CC(=O)O)C(=O)N[C@@H](Cc1ccccc1)C(N)=O (Boc-WK(X28)DF-NH2)	25	39	70
CC(C)(C)OC(=O)N[C@@H](Cc1c[nH]c2ccccc12)C(=O)N[C@@H](CCCCNC(=O)CCc1ccc(C(F)(F)F)cc1)C(=O)N[C@@H](CC(=O)O)C(=O)N[C@@H](Cc1ccccc1)C(N)=O (Boc-WK(X30)DF-NH2)	30000	390	77
Cc1ccc(/C=C\C(=O)NCCCC[C@H](NC(=O)[C@H](Cc2c[nH]c3ccccc23)NC(=O)OC(C)(C)C)C(=O)N[C@@H](CC(=O)O)C(=O)N[C@@H](Cc2ccccc2)C(N)=O)cc1 (Boc-WK(X32)DF-NH2)	52	71	71

Now from value to molecule, other results behind:

EC50 (Cavia porcellus [2]) [nM]	IC50 [3] [nM]	Compound	Max (Cavia porcellus [1]) [%]
2.9	22	CN(C(=O)[C@H](CC(=O)O)NC(=O)[C@H](CCCCNC(=O)/C=C/c1ccc(OS(=O)(=O)O)cc1)NC(=O)[C@H](Cc1c[nH]c2ccccc12)NC(=O)OC(C)(C)C)[C@@H](Cc1ccccc1)C(N)=O (Boc-WK(X23)D[NMeF]-NH2)	74
20	30	COc1ccc(/C=C\C(=O)NCCCC[C@H](NC(=O)[C@H](Cc2c[nH]c3ccccc23)NC(=O)OC(C)(C)C)C(=O)N[C@@H](CC(=O)O)C(=O)N[C@@H](Cc2ccccc2)C(N)=O)cc1 (Boc-WK(X25)DF-NH2)	72
46	49	CC(C)(C)OC(=O)N[C@@H](Cc1c[nH]c2ccccc12)C(=O)N[C@@H](CCCCNC(=O)/C=C\c1ccc(Cl)c(Cl)c1)C(=O)N[C@@H](CC(=O)O)C(=O)N[C@@H](Cc1ccccc1)C(N)=O (Boc-WK(X26)DF-NH2)	62
59	22	CC(C)(C)OC(=O)N[C@@H](Cc1c[nH]c2ccccc12)C(=O)N[C@@H](CCCCNC(=O)/C=C\c1cccc(O)c1)C(=O)N[C@@H](CC(=O)O)C(=O)N[C@@H](Cc1ccccc1)C(N)=O (Boc-WK(X29)DF-NH2)	54
17	40	COc1ccc(/C=C\C(=O)NCCCC[C@H](NC(=O)[C@H](Cc2c[nH]c3ccccc23)NC(=O)OC(C)(C)C)C(=O)N[C@@H](CC(=O)O)C(=O)N[C@@H](Cc2ccccc2)C(N)=O)cc1OC (Boc-WK(X31)DF-NH2)	61
8.6	15	CN(C(=O)[C@H](CC(=O)O)NC(=O)[C@H](CCCCNC(=O)/C=C/c1ccc(Cl)cc1)NC(=O)[C@H](Cc1c[nH]c2ccccc12)NC(=O)OC(C)(C)C)[C@@H](Cc1ccccc1)C(N)=O (Boc-WK(X33)D[NMeF]-NH2)	68
